Source: patent US11590129B2, “Combination therapy with an antitumor alkaloid” (PHARMA MAR, S.A., priority 2010, dated 2023)
Like-named read-outs stand apart in the source and are kept apart here.

Key:
[1] = tested on: U-937 human lymphoma cell line; test: cells; conditions: Homo sapiens, U-937, 72 h
Experimental: (§1) Briefly, cells were seeded in 96 well microtiter plates at a density of 50000 cells per well in 150 μL of culture medium and incubated for 4-6 hours in drug-free medium before treatment with vehicle alone or test compounds for 72 hours.
(§2) After incubation, the cytotoxic effect was evaluated using a MTT reduction assay. 50 μL of MTT solution (1 mg/mL) were added to the wells and incubated for 15-17 hours at 37° C. until formazan crystals were formed. After gently removing the culture medium, DMSO was added to dissolve the insoluble purple formazan product into a colored solution. […] Results were expressed as percentage of control cell growth. The EC50 values (half-maximal effective concentration) used for the combination studies were calculated using Prism v5.02 software (GraphPad). EC50 was expressed as molar concentration and represented the mean of at least three independent assays.
(§3) Using these starting concentrations, constant serial dilutions were performed to generate the concentration-response curves for each set of drugs, alone and in combination.
(§4) Based on this equation, the term “combination index” (CI) is used as a quantitative measure of the degree of drug interactions. […] CI values were calculated by solving the equation for different values of fa (i.e., for different degrees of cell groth inhibition).
(§5) Data were analyzed using CalcuSyn software (Biosoft, Cambridge, UK). For statistical analysis and graphs Prism software (GraphPad, San Diego, USA) was used. All the results represent the mean of at least three independent experiments.
(§6) Additional serial dilutions were prepared in serum-free culture medium to achieve a final 4× concentration. Aliquots of 50 μL of each diluted compound were added per well.
(§7) In the second set of assays, concentration-response curves for the agents tested, both alone and in two-drug combination, were performed.

[2] = tested on: RAMOS human lymphoma cell line; test: cells; conditions: Homo sapiens, Ramos, 72 h
Experimental: as §1, §2, §3, §4, §5, §6, §7

[3] = tested on: HT-29 human colon adenocarcinoma cell line; test: cells; conditions: Homo sapiens, HT-29, 72 h
How it was run: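 HT-29 cells (5,000/well) were attached for 24 h, then exposed to vehicle or compounds for 72 h. Viability was read by MTT reduction, with 8 h MTT at 37° C and formazan dissolved in DMSO. Values are % of control cell growth.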

[4] = tested on: PANC-1 human pancreatic carcinoma cell line; test: cells; conditions: Homo sapiens, PANC-1, 72 h
Experimental: (§8) a. […] Briefly, cells were harvested and seeded in 96 well microtiter plates at a density of 5,000 cells in 150 μL of culture medium and incubated for 24 hours in drug-free medium before treatment with vehicle alone or test compounds for 72 h.
(§9) The cytotoxic effect was measured by the MTT reduction assay, in which 3-(4,5-Dimethylthiazol-2-yl)-2,5-diphenyltetrazolium bromide, a tetrazole, which is reduced to purple formazan in the mitochondria of living cells, was used. MTT (50 μL of 1 mg/mL stock solution) was added to the wells and incubated for 8 hours at 37° C. until formazan crystals were formed. After gently removing the culture medium, DMSO was added to dissolve the insoluble purple formazan product into a colored solution. […] Results were expressed as percentage of control cell growth.
(§10) b. In a second set of assays, A549 human tumor cells were incubated with PM01183 in combination with each of the agents mentioned above.
(§11) As a visual aid, response values were plotted on a scatter plot with dose ratios given on the x-axis and % response values on the y-axis. […] In cases where response values at the two endpoints were approximately equivalent, points lying above or below this predicted line of additivity could be interpreted as representing antagonistic or synergistic drug interaction, respectively.
as §6
PANC-1 was the human pancreatic carcinoma cell line selected for this assay.

[5] = tested on: RXF-393 human kidney carcinoma cell line; test: cells; conditions: Homo sapiens, RXF 393, 72 h
[6] = tested on: MDA-MB-231 human breast adenocarcinoma cell line; test: cells; conditions: Homo sapiens, MDA-MB-231, 72 h
[7] = tested on: HepG2 human hepatocellular liver carcinoma cell line; test: MTT cytotoxicity assay in HepG2 cells: IC50 of single agents and combinations with PM01183; type: cell-based; conditions: Homo sapiens
[8] = tested on: U87-MG human glioblastoma cell line; test: cells; conditions: Homo sapiens, U-87 MG, 72 h
[9] = tested on: A673 human rhabdomyosarcoma cell line; test: cells; conditions: Homo sapiens, A673, 72 h
How it was run: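 A673 cells seeded at 5,000 per well, grown 24 h drug-free, then exposed to compounds for 72 h. Viability by MTT reduction (8 h, 37 °C), formazan dissolved in DMSO. Results expressed as percentage of control cell growth.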

[10] = tested on: PC-3 human prostate cancer cell line; test: cells; conditions: Homo sapiens, PC-3, 72 h
How it was run: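 Cells seeded at 5,000/well, grown 24 h drug-free, then exposed to vehicle or test compounds for 72 h. Viability by MTT reduction (8 h, 37 °C), formazan dissolved in DMSO. Values given as percentage of control cell growth.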

[11] = tested on: IGROV-1 human ovarian adenocarcinoma cell line; test: cells; conditions: Homo sapiens, IGROV-1, 72 h
[12] = tested on: HGC-27 human gastric carcinoma cell line; test: cells; conditions: Homo sapiens, HGC-27, 72 h
[13] = tested on: A549 human lung carcinoma cell line; test: MTT cytotoxicity assay in A549 cells: IC50 of single agents and combinations with PM01183; type: cell-based; conditions: Homo sapiens; A549, 72 hours drug exposure, MTT; read-out: IC50
How it was run: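 A549 cells seeded at 5,000 per well, grown 24 h drug-free, then exposed to vehicle or compounds for 72 h, either singly or combined with PM01183. Combination responses plotted against dose ratio relative to an additivity line.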

[14] = tested on: JURKAT human leukemia cell line; test: cells; conditions: Homo sapiens, Jurkat, 72 h
Experimental: as §6
(§12) JURKAT and MOLT-4 were the human leukemia cell lines selected for this assay, which were obtained from the American Type Culture Collection (ATCC).
as §1, §2
(§13) b. In a second set of experiments, concentration-response curves for the agents tested, both alone and in two-drug combination, were performed, using the same methodology described in the previous paragraph.
as §3, §4, §5

[15] = tested on: SK-MEL-2 human melanoma cell line; test: cells; conditions: Homo sapiens, SK-MEL-2, 72 h
Experimental: as §8, §9, §10, §11, §6
SK-MEL-2 was the human melanoma cell line selected for this assay.

[16] = tested on: SW1990 tumors; test: Human pancreatic tumor xenografts (SW1990) in athymic nude mice, tumor volume % T/C; type: in vivo
Experimental: Female athymic nude mice (Harlan Laboratories Models, S.L. (Barcelona, Spain) were utilized for all experiments. Animals were housed in individually ventilated cages, up to ten per cage in a 12-hour light-dark cycle at 21-23° C. and 40-60% humidity. The mice were allowed free access to irradiated standard rodent diet and sterilized water. Animals were acclimated for at least 5 days prior to tumor implantation with a tumor cell suspension.
Each animal was subcutaneously implanted on the right flank, using 26G needle and a 1 cc syringe, with 5×10^6 SW1990 cells, from in vitro passage 12, in 0.05 mL suspension of 50% Matrigel and 50% serum free medium, without antibiotics.
PM01183 was provided in the form of vials of lyophilized PM01183 cake which was reconstituted with water for infusion to a concentration of 0.2 mg/mL. The PM01183 stock solution was further diluted in 5% glucose solution for injection to the dosing formulation concentrations.
Dose level groups were administered either as single agents or in combination.
Comparison of the median tumor volume in the treatment groups (T) to the median tumor volume in the control group (T/C×100%) was used for evaluation of the antitumor efficacy.

[17] = tested on: MOLT-4 human leukemia cell line; test: cells; conditions: Homo sapiens, MOLT-4, 72 h
Experimental: as §6, §12, §1, §2, §13, §3, §4, §5

[18] = HepG2, 72 hours drug exposure, MTT, read-out: IC50
[19] = gemcitabine 45.0 mg/kg iv days 0,7,14
[20] = gemcitabine 90.0 mg/kg iv days 0,7,14
[21] = gemcitabine 135.0 mg/kg iv days 0,7,14
[22] = gemcitabine 180.0 mg/kg iv days 0,7,14

COc1cccc2c1C(=O)c1c(O)c3c(c(O)c1C2=O)C[C@@](O)(C(C)=O)C[C@@H]3O[C@H]1C[C@H](N)[C@H](O)[C@H](C)O1 [Daunorubicin, daunorubicin]
EC50 [1]: 0.304 µM
EC50 [2]: 0.315 µM
IC50 [3]: 0.532 µM
IC50 [4]: 0.869 µM
IC50 [5]: 0.62 µM
IC50 [6]: 0.37 µM
IC50 [7, 18]: 0.3 µM
IC50 [8]: 0.284 µM
IC50 [9]: 0.52 µM
IC50 [10]: 1.15 µM
IC50 [11]: 0.355 µM
IC50 [12]: 0.372 µM
IC50 [13]: 0.355 µM
EC50 [14]: 0.792 µM
IC50 [15]: 0.177 µM

Nc1ccn([C@@H]2O[C@H](CO)[C@@H](O)C2(F)F)c(=O)n1 [Gemcitabine, gemcitabine]
EC50 [1]: 0.0327 µM
EC50 [2]: 0.0251 µM
IC50 [3]: 0.4 µM
IC50 [4]: 1 µM
IC50 [5]: 0.5 µM
IC50 [6]: 0.0085 µM
IC50 [7, 18]: 0.00534 µM
IC50 [8]: 0.45 µM
IC50 [9]: 0.000434 µM
IC50 [10]: 0.4 µM
IC50 [11]: 0.00634 µM
IC50 [12]: 0.000534 µM
IC50 [13]: 0.00028 µM
% T/C on day 0 [16, 19]: 102.3%
% T/C on day 3 [16, 19]: 85.5%
% T/C on day 6 [16, 19]: 70.3%
% T/C on day 8 [16, 19]: 70.5%
% T/C on day 10 [16, 19]: 63.3%
% T/C on day 13 [16, 19]: 64.8%
% T/C on day 15 [16, 19]: 63.1%
% T/C on day 17 [16, 19]: 58.5%
% T/C on day 20 [16, 19]: 58.7%
% T/C on day 22 [16, 19]: 57.3%
% T/C on day 24 [16, 19]: 65.2%
% T/C on day 28 [16, 19]: 59.3%
% T/C on day 0 [16, 20]: 103.8%
% T/C on day 3 [16, 20]: 70.0%
% T/C on day 6 [16, 20]: 73.8%
% T/C on day 8 [16, 20]: 63.3%
% T/C on day 10 [16, 20]: 55.6%
% T/C on day 13 [16, 20]: 54.8%
% T/C on day 15 [16, 20]: 49.9%
% T/C on day 20 [16, 20]: 47.6%
% T/C on day 22 [16, 20]: 47.0%
% T/C on day 24 [16, 20]: 45.9%
% T/C on day 28 [16, 20]: 49.2%
% T/C on day 0 [16, 21]: 102.3%
% T/C on day 3 [16, 21]: 78.3%
% T/C on day 6 [16, 21]: 71.9%
% T/C on day 8 [16, 21]: 63.7%
% T/C on day 10 [16, 21]: 55.4%
% T/C on day 13 [16, 21]: 52.7%
% T/C on day 15 [16, 21]: 54.8%
% T/C on day 17 [16, 21]: 51.2%
% T/C on day 20 [16, 21]: 49.5%
% T/C on day 22 [16, 21]: 48.7%
% T/C on day 24 [16, 21]: 49.8%
% T/C on day 28 [16, 21]: 49.5%
% T/C on day 0 [16, 22]: 102.2%
% T/C on day 3 [16, 22]: 84.1%
% T/C on day 6 [16, 22]: 73.9%
% T/C on day 8 [16, 22]: 66.1%
% T/C on day 10 [16, 22]: 60.9%
% T/C on day 13 [16, 22]: 59.4%
% T/C on day 15 [16, 22]: 58.5%
% T/C on day 17 [16, 22]: 52.1%
% T/C on day 20 [16, 22]: 49.1%
% T/C on day 22 [16, 22]: 48.6%
% T/C on day 24 [16, 22]: 46.9%
% T/C on day 28 [16, 22]: 39.3%

CN(Cc1cnc2nc(N)nc(N)c2n1)c1ccc(C(=O)N[C@@H](CCC(=O)O)C(=O)O)cc1 [Methotrexate, methotrexate]
EC50 [1]: 0.0263 µM
EC50 [2]: 5.02 µM
IC50 [4]: 10 µM
IC50 [5]: 175 µM
IC50 [6]: 5.94 µM
IC50 ([7]; HepG2, 72 h): 0.0396 µM
IC50 [8]: 50 µM
IC50 [10]: 120 µM
IC50 [11]: 100 µM
IC50 [12]: 0.033 µM
EC50 [17]: 0.0439 µM
EC50 [14]: 0.145 µM
IC50 [15]: 100 µM
